Measured values reported in BindingDB's records for doi:10.1038/nchembio.307 (Harvard Medical School, 2010).

molecular target: T1, Amine oxidase [flavin-containing] B (Homo sapiens, UniProt P27338); assay: MAO-B Enzymatic Assay
T1 sequence (P27338 whole entry): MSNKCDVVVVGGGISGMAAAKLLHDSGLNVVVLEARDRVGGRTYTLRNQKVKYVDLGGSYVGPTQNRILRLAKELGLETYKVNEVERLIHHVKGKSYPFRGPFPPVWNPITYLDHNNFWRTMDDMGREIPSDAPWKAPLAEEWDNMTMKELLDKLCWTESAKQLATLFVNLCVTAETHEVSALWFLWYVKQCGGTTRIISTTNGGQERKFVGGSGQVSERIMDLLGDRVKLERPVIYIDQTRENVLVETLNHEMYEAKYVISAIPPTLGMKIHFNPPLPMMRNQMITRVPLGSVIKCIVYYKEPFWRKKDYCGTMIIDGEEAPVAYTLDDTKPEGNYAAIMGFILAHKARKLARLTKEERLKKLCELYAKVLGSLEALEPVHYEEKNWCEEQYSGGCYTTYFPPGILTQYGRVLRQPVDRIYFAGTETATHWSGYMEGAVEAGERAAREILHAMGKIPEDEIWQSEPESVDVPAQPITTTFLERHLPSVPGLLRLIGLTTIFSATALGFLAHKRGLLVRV
From the text: Momoamine oxidase type B(MAO-B) activity in vitro assay using molecules that caused a photomotor response (PMR) "magnitude stimulant' (MAG) phenotype characterized by increased PMR excitation magnitude.

Row | IC50 [µM] | SMILES
1 | 10 | O=C(CNC(=O)OCc1ccccc1)Oc1ccc(C(=O)Oc2ccc3c4c(c(=O)oc3c2)CCC4)cc1Cl [MAG-6]
2 | 0.5 | CC(C)(C)OC(=O)NCC(=O)Oc1ccc(C(=O)Oc2ccc3c4c(c(=O)oc3c2)CCC4)cc1Cl [MAG-7]
3 | 1 | CC(C)(C)OC(=O)NCCC(=O)Oc1ccc(C(=O)Oc2ccc3c4c(c(=O)oc3c2)CCC4)cc1Cl [MAG-3]
4 | 10 | CC(C)(C)OC(=O)NCCC(=O)Oc1ccc(C(=O)Oc2ccc3c4c(c(=O)oc3c2)CCCC4)cc1Cl [MAG-5]
